Patent US20140249139A1, “Quinazoline Derivatives” (NOVARTIS AG, priority 2011, published 2014)

Tests used:
PI3K delta [1] = biological target: T1, PI3K delta (Homo sapiens, UniProt O00329); assay: Enzymatic PI3K delta isoform inhibition (lipid kinase activity, Kinase-Glo); type: biochemical; settings: enzymatic assay
T1 construct: for the full-length p110-d subunit are generated and fused by overlapping PCR; His tag (C); made in house; host or cells: baculovirus BV1060; Tn5 (Trichoplusia ni) or TiniPro insect cells
Procedure, shortened: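 Reactions were started with ATP (2 μM solution) after the enzyme (10 nM solution) and phosphatidylinositol substrate (5 μg/ml solution) were added to the DMSO-dissolved compounds.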
T1 sequence (O00329 with tags, fused parts or gaps limits assumed, species assumed): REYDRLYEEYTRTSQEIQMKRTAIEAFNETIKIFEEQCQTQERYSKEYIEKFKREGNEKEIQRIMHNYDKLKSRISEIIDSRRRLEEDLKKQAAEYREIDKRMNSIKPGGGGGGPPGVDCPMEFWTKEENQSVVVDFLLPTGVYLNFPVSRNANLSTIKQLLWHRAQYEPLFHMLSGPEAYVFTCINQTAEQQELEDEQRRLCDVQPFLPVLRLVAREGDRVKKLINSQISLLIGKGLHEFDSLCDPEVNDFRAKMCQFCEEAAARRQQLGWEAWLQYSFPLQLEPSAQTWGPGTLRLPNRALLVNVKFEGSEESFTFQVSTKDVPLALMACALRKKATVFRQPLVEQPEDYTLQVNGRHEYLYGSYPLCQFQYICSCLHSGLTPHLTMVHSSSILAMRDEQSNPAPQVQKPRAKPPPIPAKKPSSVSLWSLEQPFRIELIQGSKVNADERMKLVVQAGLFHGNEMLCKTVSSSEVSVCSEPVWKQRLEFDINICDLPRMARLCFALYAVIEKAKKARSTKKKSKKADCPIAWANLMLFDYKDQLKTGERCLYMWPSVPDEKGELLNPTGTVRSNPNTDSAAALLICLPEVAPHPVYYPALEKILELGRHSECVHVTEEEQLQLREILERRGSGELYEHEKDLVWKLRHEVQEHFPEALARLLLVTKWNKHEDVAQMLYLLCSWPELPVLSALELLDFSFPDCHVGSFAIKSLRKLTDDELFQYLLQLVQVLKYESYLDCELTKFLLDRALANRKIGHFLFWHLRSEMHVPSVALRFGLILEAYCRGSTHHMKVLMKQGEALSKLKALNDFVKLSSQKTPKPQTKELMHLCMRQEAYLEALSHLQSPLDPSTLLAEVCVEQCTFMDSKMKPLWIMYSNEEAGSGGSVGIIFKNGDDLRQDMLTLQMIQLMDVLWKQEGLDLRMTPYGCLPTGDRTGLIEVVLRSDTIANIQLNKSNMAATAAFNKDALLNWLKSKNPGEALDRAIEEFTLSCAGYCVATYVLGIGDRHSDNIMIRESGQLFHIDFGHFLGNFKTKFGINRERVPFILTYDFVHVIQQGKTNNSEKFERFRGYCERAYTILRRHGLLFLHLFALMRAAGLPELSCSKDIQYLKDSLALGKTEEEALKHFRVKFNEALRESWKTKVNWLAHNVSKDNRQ

PI3K delta [2] = biological target: T2, PI3K delta (Homo sapiens, UniProt O00329); assay: Cellular PI3K delta inhibition: PKB Ser473 phosphorylation in Rat1 cells expressing myr-HA-p110 delta; type: cell-based, rat; settings: 1 h incubation, read-out: Cell PI3Kd/ IC50
T2 construct: myristylation signal (myr) (N); HA tag (N); expressed in transfected cells; host or cells: Rat1 cells, stably transfected
T2 sequence (O00329 1-1044): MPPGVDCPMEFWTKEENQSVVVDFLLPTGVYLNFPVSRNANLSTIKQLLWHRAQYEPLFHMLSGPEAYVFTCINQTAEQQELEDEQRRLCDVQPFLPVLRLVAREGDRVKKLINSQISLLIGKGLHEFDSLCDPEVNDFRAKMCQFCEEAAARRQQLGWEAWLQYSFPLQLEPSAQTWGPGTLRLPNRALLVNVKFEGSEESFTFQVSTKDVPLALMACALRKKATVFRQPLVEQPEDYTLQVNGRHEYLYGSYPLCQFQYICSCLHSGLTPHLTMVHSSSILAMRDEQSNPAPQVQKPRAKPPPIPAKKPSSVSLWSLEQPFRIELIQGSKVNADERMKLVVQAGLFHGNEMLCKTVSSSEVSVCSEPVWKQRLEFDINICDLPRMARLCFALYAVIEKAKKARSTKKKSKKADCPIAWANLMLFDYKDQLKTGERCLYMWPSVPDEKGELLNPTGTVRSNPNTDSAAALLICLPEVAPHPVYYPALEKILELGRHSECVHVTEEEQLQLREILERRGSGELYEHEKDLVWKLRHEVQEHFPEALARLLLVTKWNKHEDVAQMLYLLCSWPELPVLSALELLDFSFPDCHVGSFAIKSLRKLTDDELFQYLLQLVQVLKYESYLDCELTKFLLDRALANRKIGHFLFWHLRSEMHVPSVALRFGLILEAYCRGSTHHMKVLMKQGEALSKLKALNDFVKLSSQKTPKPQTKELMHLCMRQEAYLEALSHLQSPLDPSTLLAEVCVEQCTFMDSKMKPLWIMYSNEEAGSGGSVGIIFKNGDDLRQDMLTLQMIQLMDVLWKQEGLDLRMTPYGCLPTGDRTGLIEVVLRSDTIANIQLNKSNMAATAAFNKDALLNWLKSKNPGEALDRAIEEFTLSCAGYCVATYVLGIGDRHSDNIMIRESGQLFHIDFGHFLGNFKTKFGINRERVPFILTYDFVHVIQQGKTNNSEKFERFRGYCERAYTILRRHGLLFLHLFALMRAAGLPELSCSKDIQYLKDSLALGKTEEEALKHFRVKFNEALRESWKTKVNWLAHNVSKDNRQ
Experimental: The compounds tested were prepared as 10 mM stock solutions in DMSO (Merck, #8.02912.2500). Test compounds were prepared in 384 well plates (Greiner PP-Microplate, #781201) in 3-fold serial dilutions in 90% DMSO (Merck, #8.02912.2500) with 8 concentrations starting at 2 mM. Test compounds were prediluted (1:400) in two subsequent 1:20 dilution steps (5 μl+95 μl) from the master plate into starving medium in 384 well plates using a MATRIX PlateMate 2×2 pipettor (384 well-head). 25 μl/well of this 1:400 dilution were then added to the cell culture plate.
The Rat1-myr-HA-p110 alpha, beta and delta cells were trypsinized and counted with a CASY TT cell counter (Schärfe System GmbH, Reutlingen Germany). Rat1 cells expressing myr-HA-p110 alpha, beta and delta were seeded in 384-well plates at 15,000 cells per well in 50 μl/well complete medium and incubated for 20 h at 37° C., 5% CO2 until the cell layers reached 80-90% confluency. […] in 384 well plates using a MATRIX PlateMate 2×2 pipettor (384 well-head). 25 μl/well of this 1:400 dilution were then added to the cell culture plate.
Untreated cells were used as low controls, cells stimulated in absence of compounds were used as high controls. After an incubation of 1 h with compounds, cells were lysed by addition of 15 μl 3× lysis buffer (provided as 5× solution with the SureFire kit) enriched with 0.72% BSA, yielding a total volume of 45 μl cell lysate per well. Cell lysates were either used immediately of stored frozen (in sealed plates) at −20° C. until use. 5 μl of each lysate were transferred to Proxy-plates and mixed with Surefire beads, reaction buffer (containing the appropriate antibodies), activation buffer and dilution buffer according to the instructions of the supplier, yielding a total volume of 12 μl per well (the total final BSA conc. in the assay was 0.1%). After 2 h incubation (with shaking) in the dark at RT, light emission was measured using the EnVision Reader (Perkin Elmer). The difference between high and low controls was taken as 100% and compound effects were expressed as percent inhibition. IC50 values were determined from the dose response curves by graphical extrapolation.

| SMILES | IC50 (PI3K delta [1]) [nM] | IC50 (PI3K delta [2]) [nM] |
| --- | --- | --- |
| COc1ncc(-c2ccc3ncnc(-c4cccc(C(=O)N5CCN(C)CC5)c4)c3c2)cn1 [Example 2] | 9.5 | 27.5 |
| COc1ccc(-c2ccc3ncnc(-c4cccc(C(=O)N5CCN(C(C)=O)CC5)c4)c3c2)cc1S(=O)(=O)N1CCCC1 [Example 7] | 6 | 83 |
| CNc1ncc(-c2ccc3ncnc(-c4cncc(C(=O)N5CCN(C)CC5)c4)c3c2)cc1C [Example 75, {5-[6-(5-Methyl-6-methylamino-pyridin-3-yl)-quinazolin-4-yl]-pyridin-3-yl}-(4-methyl-piperazin-1-yl)-methanone] | 12 | 14 |
| COc1ccc(-c2ccc3ncnc(-c4cncc(C(=O)N5CCNC(C)(C)C5)c4)c3c2)cc1C(F)(F)F [Example 81, (3,3-Dimethyl-piperazin-1-yl)-{5-[6-(4-methoxy-3-trifluoromethyl-phenyl)-quinazolin-4-yl]-pyridin-3-yl}-methanone] | 3.62 | 19.5 |
| COc1ccc(-c2ccc3ncnc(-c4cccc(C(=O)N5C[C@@H]6C[C@H]5CN6C)c4)c3c2)cn1 [Example 91, {3-[6-(6-Methoxy-pyridin-3-yl)-quinazolin-4-yl]-phenyl}-((1S,4S)-5-methyl-2,5-diaza-bicyclo[2.2.1]hept-2-yl)-methanone] | < 3 | 32.3 |

Now from value to compound:

| IC50 (PI3K delta [1]) [nM] | IC50 (PI3K delta [2]) [nM] | SMILES |
| --- | --- | --- |
| 8 | 103 | COc1ccc(-c2ccc3ncnc(-c4cc(F)cc(C(=O)N5CCN(C(C)=O)CC5)c4)c3c2)cn1 [Example 110, 1-(4-{3-Fluoro-5-[6-(6-methoxy-pyridin-3-yl)-quinazolin-4-yl]-benzoyl}-piperazin-1-yl)-ethanone] |
| 9 | 43 | COc1ccc(-c2ccc3ncnc(-c4ccc(C)c(C(=O)N5CC6CC5CN6C)c4)c3c2)cn1 (centres unmarked) [Example 117] |
